Source: US12295936B2, “Immunomodulating urea azalides” (Zoetis Services LLC, priority 2020, dated 2025)

Legend:
P. multocida 46572 = assay: In vivo mouse lung infection challenge model (murine efficacy); set-up: species or system CD-1 female mice; conditions: 20 mg/kg subcutaneous, P. multocida challenge; harmonized against the comparative vehicle survival rate
Description: The challenge organism was P. multocida 46572. Target challenge concentration was 5×10^2 CFU/mouse. Isolated colonies from overnight growth (37° C. with 5% CO2) on trypticase soy agar (TSA II) blood plates were transferred to room temperature Brain Heart Infusion Broth (BHIB). The broth culture was incubated 3.5-4 hours to approximately mid-log phase of growth, as measured by forward light scatter at 600 nm (OD600, 0.200). The culture was centrifuged to collect the bacterial pellet. The pellet was re-suspended in BHIB and adjusted to provide an approximate concentration of 2.7 log^10 colony forming units (CFU) in 0.04 mL at the highest concentration. The challenge inoculum concentration was confirmed by serial dilutions of the inoculum for CFU enumeration. On Day −5, CD-1 female mice were received. Mice were given standard rodent diet and water ad libitum. On Day 0, bacterial inoculum (0.04 mL) was administered to each mouse (n=36) intranasally. Compounds of the invention were dosed at 20 mg/kg (0.1 mL) in a buffered (˜pH 5.4) propylene glycol, monothioglycerol and water solution by subcutaneous injection. Animals were observed from Days 1-10. The study was terminated on Day 10. In addition, some treatment groups were sampled at 6, 24, and 48 hours post bacterial challenge for RNA sequence analysis of lung tissue.
The murine efficacy model (P. multocida challenge) was optimized, and the treatment group size was powered to be able to observe statistically significant improvement of survival to expected ranges for immunomodulatory compounds. The experimental design was a randomized complete block design. Mice were individually identified and treatment groups comingled within a cage, with every treatment group equally represented across cages. Mortality was the primary variable. Mortality data was analyzed using a generalized mixed model with fixed effect of treatment and random effect of block. Survival time was also analyzed using the SAS PHREG (survival analysis) procedure to examine whether there were significant differences between treatment groups and the control group. Numerous compounds of the invention and M9 (positive control) were tested in this model at a dose of 20 mg/kg. Typical percent survival for no treatment control is in the range of 0-20% based on study to study variation in challenge inoculum and rate of infection. […] Mouse survival for M9 was about 90-100%, further supporting its antibacterial properties against the bacterial strain (Table 3). Survival values presented are harmonized against the comparative vehicle survival rate.

TNF-α = assay: LPS-stimulated whole bovine blood assay, MSD cytokine detection; type: cell-based; conditions: Bos taurus, LPS-stimulated bovine whole blood; read-out: TNF-α (IC50 μM)
IL-1β = assay: as above; type: cell-based; conditions: overstimulation of IL-1β, LPS-stimulated bovine whole blood
[1] = tested on: BRD pathogens, M. haemolytica and P. multocida; assay: MIC screening panel of BRD pathogens (antibacterial / non-antibacterial); conditions: read-out: antibacterial / non-antibacterial (MIC for the BRD pathogens)

With CC[C@H]1OC(=O)[C@H](C)[C@@H](O[C@H]2C[C@@](C)(OC)[C@@H](O)[C@H](C)O2)[C@H](C)[C@@H](O[C@@H]2O[C@H](C)C[C@H](N(C)C(=O)Nc3ccccc3)[C@H]2O)[C@](C)(O)C[C@@H](C)CN(C)[C@H](C)[C@@H](O)[C@]1(C)O [Example B-4, 1-((2S,3R,4S,6R)-2-(((2R,3S,4R,5R,8R,10R,11R,12S,13S,14R)-2-ethyl-3,4,10-trihydroxy-13-(((2R,4R,5S,6S)-5-hydroxy-4-methoxy-4,6-dimethyltetrahydro-2H-pyran-2-yl)oxy)-3,5,6,8,10,12,14-heptamethyl-15-oxo-1-oxa-6-azacyclopentadecan-11-yl)oxy)-3-hydroxy-6-methyltetrahydro-2H-pyran-4-yl)-1-methyl-3-phenylurea] the “Mouse Murine Percent Survival” value (P. multocida 46572) was 7%, the IC50 (TNF-α) was 45 µM and the “IL-1β OS of LPS” value (IL-1β) was 80 µM.

In the case of CC[C@H]1OC(=O)[C@H](C)[C@@H](O[C@H]2C[C@@](C)(OC)[C@@H](O)[C@H](C)O2)[C@H](C)[C@@H](O[C@@H]2O[C@H](C)C[C@H](N(C)C(=O)N(C)c3ccccc3)[C@H]2O)[C@](C)(O)C[C@@H](C)CN(C)[C@H](C)[C@@H](O)[C@]1(C)O [Example B-5, 1-((2S,3R,4S,6R)-2-(((2R,3S,4R,5R,8R,10R,11R,12S,13S,14R)-2-ethyl-3,4,10-trihydroxy-13-(((2R,4R,5S,6S)-5-hydroxy-4-methoxy-4,6-dimethyltetrahydro-2H-pyran-2-yl)oxy)-3,5,6,8,10,12,14-heptamethyl-15-oxo-1-oxa-6-azacyclopentadecan-11-yl)oxy)-3-hydroxy-6-methyltetrahydro-2H-pyran-4-yl)-1,3-dimethyl-3-phenylurea], the “Mouse Murine Percent Survival” value (P. multocida 46572) is reported as <1%.

For CC[C@H]1OC(=O)[C@H](C)[C@@H](O[C@H]2C[C@@](C)(OC)[C@](C)(O)[C@H](C)O2)[C@H](C)[C@@H](O[C@@H]2O[C@H](C)C[C@H](N(C)C(=O)N(C)c3ccc(C(F)(F)F)cc3)[C@H]2O)[C@](C)(O)C[C@@H](C)CN[C@H](C)[C@@H](O)[C@]1(C)O [Example B-13a, 1-((2S,3R,4S,6R)-2-(((2R,3S,4R,5R,8R,10R,11R,12S,13S,14R)-2-ethyl-3,4,10-trihydroxy-13-(((2R,4R,5R,6S)-5-hydroxy-4-methoxy-4,5,6-trimethyltetrahydro-2H-pyran-2-yl)oxy)-3,5,8,10,12,14-hexamethyl-15-oxo-1-oxa-6-azacyclopentadecan-11-yl)oxy)-3-hydroxy-6-methyltetrahydro-2H-pyran-4-yl)-1,3-dimethyl-3-(4-(trifluoromethyl)phenyl)urea], the “Mouse Murine Percent Survival” value (P. multocida 46572) was 44%, the IC50 (TNF-α) was 20 µM and the “IL-1β OS of LPS” value (IL-1β) was 16 µM.

In the case of CC[C@H]1OC(=O)[C@H](C)[C@@H](O[C@H]2C[C@@](C)(OC)[C@](O)(CNCCN(C)C)[C@H](C)O2)[C@H](C)[C@@H](O[C@@H]2O[C@H](C)C[C@H](N(C)C(=O)Nc3ccccc3)[C@H]2O)[C@](C)(O)C[C@@H](C)CN[C@H](C)[C@@H](O)[C@]1(C)O [Example H-3, 1-((2S,3R,4S,6R)-2-(((2R,3S,4R,5R,8R,10R,11R,12S,13S,14R)-13-(((2R,4R,5S,6S)-5-(((2-(dimethylamino)ethyl)amino)methyl)-5-hydroxy-4-methoxy-4,6-dimethyltetrahydro-2H-pyran-2-yl)oxy)-2-ethyl-3,4,10-trihydroxy-3,5,8,10,12,14-hexamethyl-15-oxo-1-oxa-6-azacyclopentadecan-11-yl)oxy)-3-hydroxy-6-methyltetrahydro-2H-pyran-4-yl)-1-methyl-3-phenylurea], the “Mouse Murine Percent Survival” value (P. multocida 46572) is reported as 8%, the IC50 (TNF-α) is reported as 400 µM and the “IL-1β OS of LPS” value (IL-1β) is reported as >500 µM.

In the case of CCCNC[C@]1(O)[C@H](C)O[C@@H](O[C@H]2[C@H](C)[C@@H](O[C@@H]3O[C@H](C)C[C@H](N(C)C(=O)N(c4ccccc4)C4CC4)[C@H]3O)[C@](C)(O)C[C@@H](C)CN[C@H](C)[C@@H](O)[C@](C)(O)[C@@H](CC)OC(=O)[C@@H]2C)C[C@@]1(C)OC [Example H-14, 1-cyclopropyl-3-((2S,3R,4S,6R)-2-(((2R,3S,4R,5R,8R,10R,11R,12S,13S,14R)-2-ethyl-3,4,10-trihydroxy-13-(((2R,4R,5S,6S)-5-hydroxy-4-methoxy-4,6-dimethyl-5-((propylamino)methyl)tetrahydro-2H-pyran-2-yl)oxy)-3,5,8,10,12,14-hexamethyl-15-oxo-1-oxa-6-azacyclopentadecan-11-yl)oxy)-3-hydroxy-6-methyltetrahydro-2H-pyran-4-yl)-3-methyl-1-phenylurea], the “Mouse Murine Percent Survival” value (P. multocida 46572) is reported as 46% and the MIC [1] is reported as > 64 µg/mL.

CCCNC[C@]1(O)[C@H](C)O[C@@H](O[C@H]2[C@H](C)[C@@H](O[C@@H]3O[C@H](C)C[C@H](N(C)C(=O)Nc4ccncc4)[C@H]3O)[C@](C)(O)C[C@@H](C)CN[C@H](C)[C@@H](O)[C@](C)(O)[C@@H](CC)OC(=O)[C@@H]2C)C[C@@]1(C)OC [Example H-73, 1-((2S,3R,4S,6R)-2-(((2R,3S,4R,5R,8R,10R,11R,12S,13S,14R)-2-ethyl-3,4,10-trihydroxy-13-(((2R,4R,5S,6S)-5-hydroxy-4-methoxy-4,6-dimethyl-5-((propylamino)methyl)tetrahydro-2H-pyran-2-yl)oxy)-3,5,8,10,12,14-hexamethyl-15-oxo-1-oxa-6-azacyclopentadecan-11-yl)oxy)-3-hydroxy-6-methyltetrahydro-2H-pyran-4-yl)-1-methyl-3-(pyridin-4-yl)urea] was tested, and the “Mouse Murine Percent Survival” value (P. multocida 46572) was 4%, the IC50 (TNF-α) was > 500 µM and the “IL-1β OS of LPS” value (IL-1β) was >500 µM.

In the case of CCCNC[C@]1(O)[C@H](C)O[C@@H](O[C@H]2[C@H](C)[C@@H](O[C@@H]3O[C@H](C)C[C@H](N(C)C(=O)Nc4ccc(OC)cc4)[C@H]3O)[C@](C)(O)C[C@@H](C)CN[C@H](C)[C@@H](O)[C@](C)(O)[C@@H](CC)OC(=O)[C@@H]2C)C[C@@]1(C)OC [Example H-87, 1-((2S,3R,4S,6R)-2-(((2R,3S,4R,5R,8R,10R,11R,12S,13S,14R)-2-ethyl-3,4,10-trihydroxy-13-(((2R,4R,5S,6S)-5-hydroxy-4-methoxy-4,6-dimethyl-5-((propylamino)methyl)tetrahydro-2H-pyran-2-yl)oxy)-3,5,8,10,12,14-hexamethyl-15-oxo-1-oxa-6-azacyclopentadecan-11-yl)oxy)-3-hydroxy-6-methyltetrahydro-2H-pyran-4-yl)-3-(4-methoxyphenyl)-1-methylurea], the “Mouse Murine Percent Survival” value (P. multocida 46572) is reported as 14%, the IC50 (TNF-α) is reported as 100 µM and the “IL-1β OS of LPS” value (IL-1β) is reported as 500 µM.

CCCNC[C@]1(O)[C@H](C)O[C@@H](O[C@H]2[C@H](C)[C@@H](O[C@@H]3O[C@H](C)C[C@H](N(C)C(N)=O)[C@H]3O)[C@](C)(O)C[C@@H](C)CN[C@H](C)[C@@H](O)[C@](C)(O)[C@@H](CC)OC(=O)[C@@H]2C)C[C@@]1(C)OC [Example H-96, 1-((2S,3R,4S,6R)-2-(((2R,3S,4R,5R,8R,10R,11R,12S,13S,14R)-2-ethyl-3,4,10-trihydroxy-13-(((2R,4R,5S,6S)-5-hydroxy-4-methoxy-4,6-dimethyl-5-((propylamino)methyl)tetrahydro-2H-pyran-2-yl)oxy)-3,5,8,10,12,14-hexamethyl-15-oxo-1-oxa-6-azacyclopentadecan-11-yl)oxy)-3-hydroxy-6-methyltetrahydro-2H-pyran-4-yl)-1-methylurea] was tested, and the “Mouse Murine Percent Survival” value (P. multocida 46572) was 11% and the MIC [1] was > 64 µg/mL.
